# Literature values as cited in article PMC9284491 (Nature Communications, 2022).
# How the values were obtained:
# [1] = molecular target: T1, ER (Homo sapiens, UniProt P03372); conditions: maximum 500 mg dose; cited from earlier work
# T1 sequence (P03372 1-595): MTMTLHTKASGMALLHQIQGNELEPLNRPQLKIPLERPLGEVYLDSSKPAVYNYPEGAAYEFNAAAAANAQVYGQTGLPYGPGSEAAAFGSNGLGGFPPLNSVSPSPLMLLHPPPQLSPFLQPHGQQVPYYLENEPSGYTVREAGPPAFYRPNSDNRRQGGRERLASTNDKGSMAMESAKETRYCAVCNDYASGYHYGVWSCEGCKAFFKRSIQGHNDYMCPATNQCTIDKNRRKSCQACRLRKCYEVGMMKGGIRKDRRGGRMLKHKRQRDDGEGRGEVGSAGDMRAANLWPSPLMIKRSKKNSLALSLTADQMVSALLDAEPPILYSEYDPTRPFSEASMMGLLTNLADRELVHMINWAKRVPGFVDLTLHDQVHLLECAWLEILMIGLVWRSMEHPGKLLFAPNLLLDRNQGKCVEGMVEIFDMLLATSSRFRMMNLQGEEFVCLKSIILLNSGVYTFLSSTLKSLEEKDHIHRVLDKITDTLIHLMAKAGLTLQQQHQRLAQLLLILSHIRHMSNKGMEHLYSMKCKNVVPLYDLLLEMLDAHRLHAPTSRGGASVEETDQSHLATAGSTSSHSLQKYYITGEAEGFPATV
# [2] = 500 mg intramuscular (day 1, day 14 of cycle 1, monthly from cycle 2); cited from earlier work
smiles,measurement,setting,value
C[C@]12CC[C@@H]3c4ccc(O)cc4C[C@@H](CCCCCCCCC[S+]([O-])CCCC(F)(F)C(F)(F)F)[C@H]3[C@@H]1CC[C@@H]2O (some centres unmarked) [fulvestrant],ER occupancy at maximum dose,[1],does not fully occupy the ER
same,Ctrough at steady state,[2],12.5 ng/mL
